What was measured:
pigweed = assay: Test B pre/postemergence pigweed; type: in vivo, Amaranthus retroflexus; conditions: for Plant response rating, Redroot pigweed: scale of 0 to 10 where 0 is no effect and 10 is complete control
Method in brief: (§1)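 Test chemicals in a non-phytotoxic solvent mixture with surfactant were sprayed preemergence onto planted seeds and postemergence onto plants 2 to 18 cm tall (1- to 4-leaf stage). After twelve to sixteen days in a greenhouse, injury was visually rated against untreated controls from 0 (no effect) to 10 (complete control).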

wild oat = assay: Test B pre/postemergence wild oat; type: in vivo, Avena fatua; conditions: for Plant response rating, Wild oats: scale of 0 to 10 where 0 is no effect and 10 is complete control
Method in brief: as §1

crabgrass = assay: Test B pre/postemergence crabgrass; type: in vivo, Digitaria sanguinalis
Method in brief: as §1

blackgrass = assay: Test B pre/postemergence blackgrass; type: in vivo, Alopecurus myosuroides
Method in brief: as §1

surinam grass = assay: Test B pre/postemergence surinam grass; type: in vivo, Brachiaria decumbens
Method in brief: as §1

smallflower flatsedge = assay: Test B flood test smallflower flatsedge; type: in vivo, Cyperus difformis
Method in brief: (§2)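 Flood test on plants grown to the 2-leaf stage; treated plants kept in greenhouse twelve to sixteen days, then visually rated against controls on a 0 (no effect) to 10 (complete control) scale.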

wheat = assay: Test B pre/postemergence wheat; type: in vivo, Triticum aestivum; conditions: for Plant response rating, Wheat: scale of 0 to 10 where 0 is no effect and 10 is complete control
Method in brief: as §1

cocklebur = assay: Test B pre/postemergence cocklebur; type: in vivo, Xanthium strumarium
Method in brief: as §1

bamyardgrass = assay: Test B flood test barnyardgrass; type: in vivo, Echinochloa crus-galli
Method in brief: as §2

morningglory = assay: Test B pre/postemergence morningglory; type: in vivo, Ipomoea hederacea; conditions: for Plant response rating, Morningglory: scale of 0 to 10 where 0 is no effect and 10 is complete control
Method in brief: as §1

rice = assay: Test B flood test rice; type: in vivo, Oryza sativa
Method in brief: as §2

purple nutsedge = assay: Test B pre/postemergence purple nutsedge; type: in vivo, Cyperus rotundus
Method in brief: as §1

velvetleaf = assay: Test B pre/postemergence velvetleaf; type: in vivo, Abutilon theophrasti; conditions: for Plant response rating, Velvetleaf: scale of 0 to 10 where 0 is no effect and 10 is complete control
Method in brief: as §1

soybean = assay: Test B pre/postemergence soybean; type: in vivo, Glycine max; conditions: for Plant response rating, Soybean: scale of 0 to 10 where 0 is no effect and 10 is complete control
Method in brief: as §1

giant foxtail = assay: Test B pre/postemergence giant foxtail; type: in vivo, Setaria faberii
Method in brief: as §1

[1] = Postemergence, Rate 250 g/ha, scale 0 to 10
[2] = Preemergence, Rate 250 g/ha, scale 0 to 10, 0 is no effect, 10 is complete control
[3] = Preemergence, Rate 500 g/ha, scale 0 to 10, 0 is no effect, 10 is complete control
[4] = Rate 62 g/ha, Postemergence, scale 0 to 10, 0 no effect, 10 complete control
[5] = Rate 125 g/ha, Postemergence, scale 0 to 10, 0 is no effect, 10 is complete control
[6] = Postemergence, Rate 500 g/ha, scale of 0 to 10 where 0 is no effect and 10 is complete control
[7] = Preemergence, Rate 62 g/ha, scale of 0 to 10 where 0 is no effect and 10 is complete control
[8] = Preemergence, Rate 125 g/ha, scale of 0 to 10 where 0 is no effect and 10 is complete control
[9] = Rate 62 g/ha, flood test species, Pre-emergence, visual evaluation after twelve to sixteen days
[10] = Rate 125 g/ha, under heading Pre-emergence, flood test species, visual evaluation after twelve to sixteen days
[11] = Rate 250 g/ha, Pre-emergence (flood test species), scale 0 to 10, 0 is no effect, 10 is complete control
[12] = Rate 500 g/ha, Pre-emergence, flood test species, scale 0 to 10 (0 no effect, 10 complete control)

CCC=CCn1c(=O)on(C(=O)N(c2ccccc2)C(C)C)c1=O [Compound 454]
4: B. signalgrass plant response rating (surinam grass; [2]) | B. signalgrass plant response rating (surinam grass; [3])
9: Redroot pigweed plant response rating (pigweed; [2]) | Crabgrass plant response rating (crabgrass; [6]) | Crabgrass plant response rating (crabgrass; [3]) | Morningglory plant response rating (morningglory; [5]) | Giant foxtail plant response rating (giant foxtail; [6]) | Plant response rating, Giant foxtail (giant foxtail; [8])
7: Morningglory plant response rating (morningglory; [4])
8: Crabgrass plant response rating (crabgrass; [2]) | Giant foxtail plant response rating (giant foxtail; [1])
1: Soybean plant response rating (soybean; [4])
6: Blackgrass plant response rating (blackgrass; [3]) | Velvetleaf plant response rating (velvetleaf; [3]) | Plant response rating, Giant foxtail (giant foxtail; [7])
2: Redroot pigweed plant response rating (pigweed; [1]) | Plant response rating, Redroot pigweed (pigweed; Preemergence, Rate 125 g/ha) | Wild oats plant response rating (wild oat; [3]) | Plant response rating, Crabgrass (crabgrass; [7]) | Crabgrass plant response rating (crabgrass; [4]) | Blackgrass plant response rating (blackgrass; [1]) | Blackgrass plant response rating (blackgrass; [6]) | Blackgrass plant response rating (blackgrass; [2]) | B. signalgrass plant response rating (surinam grass; [6]) | Soybean plant response rating (soybean; [1]) | Soybean plant response rating (soybean; [5]) | Giant foxtail plant response rating (giant foxtail; [4]) | Giant foxtail plant response rating (giant foxtail; [5])
3: Crabgrass plant response rating (crabgrass; [1]) | Plant response rating, Crabgrass (crabgrass; [8])
5: Velvetleaf plant response rating (velvetleaf; [2])
10: Redroot pigweed plant response rating (pigweed; [3]) | Morningglory plant response rating (morningglory; [1]) | Giant foxtail plant response rating (giant foxtail; [2]) | Giant foxtail plant response rating (giant foxtail; [3])
0: Plant response rating, Redroot pigweed (pigweed; Preemergence, Rate 62 g/ha) | Redroot pigweed plant response rating (pigweed; [4]) | Redroot pigweed plant response rating (pigweed; [5]) | Wild oats plant response rating (wild oat; [1]) | Plant response rating, Wild oats (wild oat; Preemergence, Rate 62 g/ha) | Plant response rating, Wild oats (wild oat; Preemergence, Rate 125 g/ha) | Wild oats plant response rating (wild oat; [2]) | Wild oats plant response rating (wild oat; [4]) | Wild oats plant response rating (wild oat; [5]) | Plant response rating, Blackgrass (blackgrass; [7]) | Plant response rating, Blackgrass (blackgrass; [8]) | Blackgrass plant response rating (blackgrass; [4]) | Blackgrass plant response rating (blackgrass; [5]) | B. signalgrass plant response rating (surinam grass; Postemergence, Rate 250 g/ha, scale 0 to 10, 0 no effect, 10 complete control) | Plant response rating, B. signalgrass (surinam grass; [7]) | Plant response rating, B. signalgrass (surinam grass; [8]) | B. signalgrass plant response rating (surinam grass; [4]) | B. signalgrass plant response rating (surinam grass; [5]) | Plant response rating, S. Flatsedge (0 to 10 scale, 0 is no effect, 10 is complete control) (smallflower flatsedge; [9]) | S. Flatsedge plant response rating (0 to 10 scale, 0 is no effect, 10 is complete control) (smallflower flatsedge; [10]) | S. Flatsedge plant response rating (smallflower flatsedge; [11]) | S. Flatsedge plant response rating (smallflower flatsedge; [12]) | Wheat plant response rating (wheat; [1]) | Plant response rating, Wheat (wheat; Preemergence, Rate 62 g/ha) | Plant response rating, Wheat (wheat; Preemergence, Rate 125 g/ha) | Wheat plant response rating (wheat; [2]) | Wheat plant response rating (wheat; [3]) | Wheat plant response rating (wheat; [4]) | Wheat plant response rating (wheat; [5]) | Cocklebur plant response rating (cocklebur; [1]) | Cocklebur plant response rating (cocklebur; [6]) | Plant response rating, Cocklebur (cocklebur; [7]) | Plant response rating, Cocklebur (cocklebur; [8]) | Cocklebur plant response rating (cocklebur; [2]) | Cocklebur plant response rating (cocklebur; [3]) | Cocklebur plant response rating (cocklebur; [4]) | Cocklebur plant response rating (cocklebur; [5]) | Plant response rating, Barnyardgrass (0 to 10 scale, 0 is no effect, 10 is complete control) (bamyardgrass; [9]) | Barnyardgrass plant response rating (0 to 10 scale, 0 is no effect, 10 is complete control) (bamyardgrass; [10]) | Barnyardgrass plant response rating (bamyardgrass; [11]) | Barnyardgrass plant response rating (bamyardgrass; [12]) | Plant response rating, Morningglory (morningglory; Preemergence, Rate 62 g/ha) | Plant response rating, Morningglory (morningglory; Preemergence, Rate 125 g/ha) | Morningglory plant response rating (morningglory; [2]) | Morningglory plant response rating (morningglory; [3]) | Plant response rating, Rice (0 to 10 scale, 0 is no effect, 10 is complete control) (rice; [9]) | Rice plant response rating (0 to 10 scale, 0 is no effect, 10 is complete control) (rice; [10]) | Rice plant response rating (rice; [11]) | Rice plant response rating (rice; [12]) | Nutsedge plant response rating (purple nutsedge; [1]) | Plant response rating, Nutsedge (purple nutsedge; [7]) | Nutsedge plant response rating (purple nutsedge; [2]) | Nutsedge plant response rating (purple nutsedge; [3]) | Nutsedge plant response rating (purple nutsedge; [4]) | Nutsedge plant response rating (purple nutsedge; [5]) | Velvetleaf plant response rating (velvetleaf; [1]) | Plant response rating, Velvetleaf (velvetleaf; Preemergence, Rate 62 g/ha) | Plant response rating, Velvetleaf (velvetleaf; Preemergence, Rate 125 g/ha) | Velvetleaf plant response rating (velvetleaf; [4]) | Velvetleaf plant response rating (velvetleaf; [5]) | Plant response rating, Soybean (soybean; Preemergence, Rate 62 g/ha) | Plant response rating, Soybean (soybean; Preemergence, Rate 125 g/ha) | Soybean plant response rating (soybean; [2]) | Soybean plant response rating (soybean; [3])

Reference: patent US6737383B1, “Herbicidal oxadiazolidines” (priority 1999, dated 2004)
